Measurements: patent US11065300B2, “Immunomodulator for hypersensitivity reaction to house dust mite-derived allergen” (MD HEALTHCARE INC., priority 2016, dated 2021)

System: macrophage RAW264.7
Assay: IL-6 and TNF-alpha secretion by macrophages given MicA sRNA Salmonella vesicles mixed with PMB
Assay type: cell-based
Description: Salmonella-derived vesicles themselves have good immunogenicity, but toxicity due to LPS present in the extracellular membrane is a problem. In order to solve this problem, the induction level of innate immune response was evaluated by mixing PMB inhibiting the activity of LPS with vesicles derived from Salmonella overexpressing Mic A sRNA.
Specifically, inflammatory cells (macrophage RAW264.7, 5×10^5 cells/well) were cultured in DMEM comprising 10% FBS and antibiotics (100 units/ml penicillin and 100 μg/ml streptomycin) for 24 hours at 37° C. 24 well tissue culture plate (TPP). After the medium was removed, extracellular vesicles comprising PMB were changed to serum-free DMEM medium added at a concentration of 1 ug/ml. After 15 hours, secretion of IL-6 and TNF-alpha was measured in inflammatory cells.
In order to determine the optimum PMB dilution concentration, in the above method, the PMB concentration was subdivided into 1, 2, 4, 8, and 10 ug/ml and administered to the macrophages together with the vesicles.

With polymyxin B [PMB] the IL-6 secretion (PMB 1 μg/ml or 10 μg/ml mixed with vesicles 1 ug/ml, RAW264.7, 15 hours) was “decreased”, the TNF-alpha secretion (PMB 10 μg/ml mixed with vesicles 1 ug/ml, RAW264.7, 15 hours) was “inhibited” and the “PMB concentration above which secretion of IL-6 no longer decreased” value (PMB 1, 2, 4, 8 and 10 ug/ml with vesicles, RAW264.7) was 2 µg/mL.
